Experimental data: article PMC9928118, “Funneling modulatory peptide design with generative models: Discovery and characterization of disruptors of calcineurin protein-protein interactions” (PLOS Computational Biology, 2023)
Values belong to the sequence of their own block, whether it stands above or below them.

Test system: GST-tagged Cn
Experiment: PEPperPRINT peptide microarray binding assay with GST-tagged Cn
Method in brief: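 Qualitative binding: peptides printed on a PEPperPRINT microarray were incubated overnight at 4 °C with 1 mg/ml GST-tagged Cn, then detected with Alexa-Fluor 647 anti-GST antibody. Log fluorescence was baseline-corrected, averaged over duplicate spots, Z-normalized and averaged across five repeats.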

[1] = GST-tagged Cn, max over the chip spots listed under Location on chip
[2] = GST-tagged Cn, mean over the chip spots listed under Location on chip
[3] = max over the spots listed under Location on chip
[4] = mean over the spots listed under Location on chip
[5] = GST-tagged Cn, max over the spots named in Location on chip
[6] = GST-tagged Cn, mean over the spots named in Location on chip
[7] = max over the chip locations listed for the peptide (two spots)
[8] = mean over the chip locations listed for the peptide (two spots)
[9] = GST-tagged Cn, max over the spots on the chip (two locations)
[10] = GST-tagged Cn, mean over the spots on the chip (two locations)
[11] = GST-tagged Cn, max over the chip locations
[12] = GST-tagged Cn, mean over the chip locations

Sequence: TFWSNPQYFVTLLESD [SeqRBM_6656]
Chip Fluorescence (max) [3]: 3.032
Chip Fluorescence (mean) [4]: 1.049

Sequence: TFWTNPQFKITLEDPD [SeqRBMlowT_205]
Chip Fluorescence (max) [5]: 1.84
Chip Fluorescence (mean) [6]: -0.4239

Sequence: TFWTNPQFKITLEEED [SeqRBMlowT_217]
Chip Fluorescence (max) [7]: 4.393
Chip Fluorescence (mean) [8]: 0.02338

Sequence: TFWTNPQFKITLTEPD [SeqRBMlowT_689]
Chip Fluorescence (max) [9]: 1.036
Chip Fluorescence (mean) [10]: -0.78

Sequence: TFWTNPQFKVKLEEPD [SeqRBMlowT_221]
Chip Fluorescence (max) [1]: 0.5686
Chip Fluorescence (mean) [2]: -0.7828

Sequence: TFWTNPQFKVKLEEVD [SeqRBMlowT_284]
Chip Fluorescence (max) [9]: 1.062
Chip Fluorescence (mean) [10]: -0.1705

Sequence: TFWTNPQFNVTLSEAD [SeqRBM_9395]
Chip Fluorescence (max) [3]: 2.777
Chip Fluorescence (mean) [4]: 0.5231

Sequence: TFWTNPQFRIHLEEED [SeqRBMlowT_251]
Chip Fluorescence (max) [3]: 2.844
Chip Fluorescence (mean) [4]: 1.205

Sequence: TFWTNPQFRIKLEDPD [SeqRBMlowT_91]
Chip Fluorescence (max) [3]: 2.652
Chip Fluorescence (mean) [4]: 0.4239

Sequence: TFWTNPQFRIKLEDVD [SeqRBMlowT_2]
Chip Fluorescence (max) [1]: 0.5307
Chip Fluorescence (mean) [2]: -0.7635

Sequence: TFWTNPQFRITLEDPD [SeqRBMlowT_31]
Chip Fluorescence (max) [3]: 2.946
Chip Fluorescence (mean) [4]: 1.658

Sequence: TFWTNPQFRITLEEED [SeqRBMlowT_658]
Chip Fluorescence (max) [7]: 4.839
Chip Fluorescence (mean) [8]: 1.41

Sequence: TFWTNPQFRITLEEVD [SeqRBMlowT_245]
Chip Fluorescence (max) [3]: 2.7449
Chip Fluorescence (mean) [4]: 0.8824

Sequence: TFWTNPQFRITVTDPD [SeqRBMlowT_669]
Chip Fluorescence (max) [3]: 2.934
Chip Fluorescence (mean) [4]: 1.6891

Sequence: TFWTNPQFRLKIPQVD [SeqRBMlowT_93]
Chip Fluorescence (max) [3]: 3.328
Chip Fluorescence (mean) [4]: 1.497

Sequence: TFWTNPQFRLKLEDPD [SeqRBMlowT_699]
Chip Fluorescence (max) [1]: 0.8365
Chip Fluorescence (mean) [2]: -0.3514

Sequence: TFWTNPQFRVKLEDPD [SeqRBMlowT_223]
Chip Fluorescence (max) [1]: 0.479
Chip Fluorescence (mean) [2]: -1.105

Sequence: TFWTNPQFRVKLEEPD [SeqRBMlowT_201]
Chip Fluorescence (max) [1]: 0.5145
Chip Fluorescence (mean) [2]: -0.7212

Sequence: TFWTNPQFVITLEEVD [SeqRBMlowT_928]
Chip Fluorescence (max) [3]: 3.091
Chip Fluorescence (mean) [4]: 0.8732

Sequence: TFWTNPQFVTLVKDGD [SeqRBM_8117]
Chip Fluorescence (max) [9]: 1.011
Chip Fluorescence (mean) [10]: -0.2929

Sequence: TFWTNPQIKLSLTEKD [SeqCAPN11_Camelus_ferus]
Chip Fluorescence (max) [3]: 3.072
Chip Fluorescence (mean) [4]: 1.377

Sequence: TFWTNPQYKIKLEDPD [SeqRBMlowT_629]
Chip Fluorescence (max) [1]: 0.8637
Chip Fluorescence (mean) [2]: -0.07489

Sequence: TFWTNPQYKIKLEEPD [SeqRBMlowT_46]
Chip Fluorescence (max) [1]: 0.956
Chip Fluorescence (mean) [2]: -0.7275

Sequence: TFWTNPQYKITLEEPD [SeqRBMlowT_54]
Chip Fluorescence (max) [9]: 1.133
Chip Fluorescence (mean) [10]: -0.8126

Sequence: TFWTNPQYKVKLEEED [SeqRBMlowT_252]
Chip Fluorescence (max) [9]: 1.065
Chip Fluorescence (mean) [10]: 0.727

Sequence: TFWTNPQYRIKLEEAD [SeqRBMlowT_241]
Chip Fluorescence (max) [3]: 3.006
Chip Fluorescence (mean) [4]: 0.9242

Sequence: TFWTNPQYRIKLEEPD [SeqRBMlowT_34]
Chip Fluorescence (max) [11]: 0.1832
Chip Fluorescence (mean) [12]: -0.5691

Sequence: TFWTNPQYRIKLTEPD [SeqRBMlowT_234]
Chip Fluorescence (max) [1]: 0.5195
Chip Fluorescence (mean) [2]: -0.7647

Next, values leading:

Chip Fluorescence (max) [1]: 0.3751
Chip Fluorescence (mean) [2]: -0.8998
Sequence: TFWSNPQFTITLAEPD [SeqRBMlowT_8092]

Chip Fluorescence (max) [3]: 3.254
Chip Fluorescence (mean) [4]: 0.9673
Sequence: TFWSNPQYKITLEEPD [SeqRBMlowT_9677]

Chip Fluorescence (max) [3]: 2.6605
Chip Fluorescence (mean) [4]: 0.5654
Sequence: TFWTNPQFKITLEELD [SeqRBMlowT_5669]

Chip Fluorescence (max) [3]: 2.6
Chip Fluorescence (mean) [4]: 0.9758
Sequence: TFWTNPQFKITLEEPD [SeqRBMlowT_951]

Chip Fluorescence (max) [9]: 1.236
Chip Fluorescence (mean) [10]: 0.1676
Sequence: TFWTNPQFKITLEEVD [SeqRBMlowT_4669]

Chip Fluorescence (max) [9]: 1.278
Chip Fluorescence (mean) [10]: -0.7291
Sequence: TFWTNPQFKITLTDPD [SeqRBMlowT_9027]

Chip Fluorescence (max) [3]: 3.1491
Chip Fluorescence (mean) [4]: 0.8579
Sequence: TFWTNPQFKLKLLDPD [SeqRBMlowT_4269]

Chip Fluorescence (max) [1]: 0.7466
Chip Fluorescence (mean) [2]: -0.6386
Sequence: TFWTNPQFKVKLEDPD [SeqRBMlowT_4293]

Chip Fluorescence (max) [5]: 1.498
Chip Fluorescence (mean) [6]: -0.7469
Sequence: TFWTNPQFKVKLEDVD [SeqRBMlowT_6885]

Chip Fluorescence (max) [11]: -0.3202
Chip Fluorescence (mean) [12]: -2.672
Sequence: TFWTNPQFKVKLTDPD [SeqRBMlowT_2929]

Chip Fluorescence (max) [3]: 2.918
Chip Fluorescence (mean) [4]: 1.097
Sequence: TFWTNPQFKVSLEEED [SeqRBMlowT_1125]

Chip Fluorescence (max) [9]: 1.208
Chip Fluorescence (mean) [10]: -0.4648
Sequence: TFWTNPQFKVTLEEPD [SeqRBMlowT_2957]

Chip Fluorescence (max) [7]: 3.672
Chip Fluorescence (mean) [8]: 2.469
Sequence: TFWTNPQFRIKLEEVD [SeqRBMlowT_2987]

Chip Fluorescence (max) [9]: 1.08
Chip Fluorescence (mean) [10]: -0.755
Sequence: TFWTNPQFRIKVEDPD [SeqRBMlowT_6818]

Chip Fluorescence (max) [3]: 2.88
Chip Fluorescence (mean) [4]: 0.5672
Sequence: TFWTNPQFRITLDSPD [SeqRBMlowT_5998]

Chip Fluorescence (max) [3]: 2.9488
Chip Fluorescence (mean) [4]: 0.108
Sequence: TFWTNPQFRITLEDVD [SeqRBMlowT_966]

Chip Fluorescence (max) [7]: 7.691
Chip Fluorescence (mean) [8]: 2.027
Sequence: TFWTNPQFRLKLEEVD [SeqRBMlowT_5628]

Chip Fluorescence (max) [5]: 1.422
Chip Fluorescence (mean) [6]: -0.7542
Sequence: TFWTNPQFRLKLIDPD [SeqRBMlowT_9197]

Chip Fluorescence (max) [7]: 3.886
Chip Fluorescence (mean) [8]: 0.4656
Sequence: TFWTNPQFRLKLVDVD [SeqRBMlowT_5534]

Chip Fluorescence (max) [5]: 1.609
Chip Fluorescence (mean) [6]: 0.5158
Sequence: TFWTNPQFRLKVVDPD [SeqRBMlowT_7375]

Chip Fluorescence (max) [9]: 1.238
Chip Fluorescence (mean) [10]: 0.4236
Sequence: TFWTNPQFRLTLLSPD [SeqRBMlowT_9173]

Chip Fluorescence (max) [7]: 5.558
Chip Fluorescence (mean) [8]: 0.117
Sequence: TFWTNPQFRVTLTEPD [SeqRBMlowT_9005]

Chip Fluorescence (max) [11]: 0.1471
Chip Fluorescence (mean) [12]: -0.7824
Sequence: TFWTNPQFRVTVTEPD [SeqRBMlowT_4663]

Chip Fluorescence (max) [5]: 1.659
Chip Fluorescence (mean) [6]: -0.5285
Sequence: TFWTNPQFTITLEEPD [SeqRBMlowT_1494]

Chip Fluorescence (max) [9]: 1.137
Chip Fluorescence (mean) [10]: -0.6823
Sequence: TFWTNPQFVVSLEEPD [SeqRBMlowT_8096]

Chip Fluorescence (max) [1]: 0.9379
Chip Fluorescence (mean) [2]: -0.001001
Sequence: TFWTNPQFVVSLPEPD [SeqRBMlowT_3270]

Chip Fluorescence (max) [3]: 2.666
Chip Fluorescence (mean) [4]: -0.09775
Sequence: TFWTNPQYKITLEEDD [SeqRBMlowT_9018]

Chip Fluorescence (max) [3]: 3.2
Chip Fluorescence (mean) [4]: 1.112
Sequence: TFWTNPQYKITLEEED [SeqRBMlowT_3204]

Chip Fluorescence (max) [1]: 0.9474
Chip Fluorescence (mean) [2]: 0.1413
Sequence: TFWTNPQYKVKLEDPD [SeqRBMlowT_2919]

Chip Fluorescence (max) [5]: 1.462
Chip Fluorescence (mean) [6]: 0.439
Sequence: TFWTNPQYRIKLEEED [SeqRBMlowT_1298]

Chip Fluorescence (max) [1]: 0.4524
Chip Fluorescence (mean) [2]: -0.5715
Sequence: TFWTNPQYRIKLTDAD [SeqRBMlowT_4313]
